Test results taken from patent publication US8513270B2, “Substituted heterocycles as Janus kinase inhibitors” (Incyte Corporation, priority 2006, dated 2013).
Structures can show the parent of a compound that is named as a salt.

Tests used:
[1] = molecular target: T1, human JAK2 (a.a. 828-1132) (Homo sapiens, UniProt O60674); experiment: In vitro JAK kinase assay (HTRF), JAK2; type: biochemical; conditions: JAK2, 30 μM ATP; read-out: EXAMPLE A HTS-JAK2 HTRF-2 IC50
T1 construct: JAK2 (a.a. 828-1132); His tag (N); made in house; host or cells: insect cells (baculovirus)
T1 sequence (O60674 828-1132): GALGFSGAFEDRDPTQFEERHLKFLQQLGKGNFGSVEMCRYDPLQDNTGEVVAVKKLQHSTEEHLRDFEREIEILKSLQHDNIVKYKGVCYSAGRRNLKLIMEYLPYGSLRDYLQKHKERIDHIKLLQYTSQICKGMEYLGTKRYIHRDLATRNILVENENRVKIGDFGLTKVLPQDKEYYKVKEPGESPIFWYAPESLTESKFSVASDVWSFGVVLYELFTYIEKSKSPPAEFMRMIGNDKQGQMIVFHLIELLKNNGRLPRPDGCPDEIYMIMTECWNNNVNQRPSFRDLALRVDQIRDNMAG
Protocol: (§1) Compounds herein were tested for inhibitory activity of JAK targets according to the following in vitro assay described in Park et al., Analytical Biochemistry 1999, 269, 94-104. The catalytic domains of human JAK1 (a.a. 837-1142), JAK2 (a.a. 828-1132) and JAK3 (a.a. 781-1124) with an N-terminal His tag were expressed using baculovirus in insect cells and purified. The catalytic activity of JAK1, JAK2 or JAK3 was assayed by measuring the phosphorylation of a biotinylated peptide. The phosphorylated peptide was detected by homogenous time resolved fluorescence (HTRF). IC50s of compounds were measured for each kinase in the reactions that contain the enzyme, ATP and 500 nM peptide in 50 mM Tris (pH 7.8) buffer with 100 mM NaCl, 5 mM DTT, and 0.1 mg/mL (0.01%) BSA. The ATP concentration in the reactions was 90 μM for JAK1, 30 μM for JAK2 and 3 μM for JAK3. Reactions were carried out at room temperature for 1 hr and then stopped with 20 μL 45 mM EDTA, 300 nM SA-APC, 6 nM Eu—Py20 in assay buffer (Perkin Elmer, Boston, Mass.). Binding to the Europium labeled antibody took place for 40 minutes and HTRF signal was measured on a Fusion plate reader (Perkin Elmer, Boston, Mass.).

[2] = system: JAK2_INA61 (cancer cell line dependent on cytokines and JAK/STAT signal transduction); experiment: Cellular assay: viability of cytokine-dependent cancer cell line (CellTiter-Glo); type: cell-based; conditions: 72 hours, read-out: EXAMPLE B JAK2_INA61 IC50
Protocol: One or more compounds herein were tested for inhibitory activity of JAK targets according to at least one of the following cellular assays.
Compounds were added to the cells in DMSO/media (final concentration 0.2% DMSO) and incubated for 72 hours at 37° C., 5% CO2. The effect of compound on cell viability was assessed using the CellTiter-Glo Luminescent Cell Viability Assay (Promega) followed by TopCount (Perkin Elmer, Boston, Mass.) quantitation. Potential off-target effects of compounds were measured in parallel using a non-JAK driven cell line with the same assay readout. […] All experiments were performed in duplicate.

[3] = molecular target: T2, human JAK1 (a.a. 837-1142) (Homo sapiens, UniProt P23458); experiment: In vitro JAK kinase assay (HTRF), JAK1; type: biochemical; conditions: JAK1, 90 μM ATP; read-out: EXAMPLE A JAK2-JAK1 HTRF-2 IC50
T2 construct: human JAK1 (a.a. 837-1142); His tag (N); made in house; host or cells: insect cells (baculovirus)
T2 sequence (P23458 849-1154): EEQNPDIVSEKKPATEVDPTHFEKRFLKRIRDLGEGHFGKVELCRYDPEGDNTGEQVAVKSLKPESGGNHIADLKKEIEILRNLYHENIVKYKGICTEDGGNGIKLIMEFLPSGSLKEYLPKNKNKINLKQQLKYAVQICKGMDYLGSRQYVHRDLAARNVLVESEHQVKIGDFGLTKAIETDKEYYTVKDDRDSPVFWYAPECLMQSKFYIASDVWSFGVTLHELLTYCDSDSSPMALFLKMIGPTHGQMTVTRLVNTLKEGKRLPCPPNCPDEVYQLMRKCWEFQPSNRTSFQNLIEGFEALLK
Protocol: as §1

[4] = molecular target: T3, human JAK3 (a.a. 781-1124) (Homo sapiens, UniProt P52333); experiment: In vitro JAK kinase assay (HTRF), JAK3; type: biochemical; conditions: JAK3, 3 μM ATP; read-out: EXAMPLE A JAK2-JAK3 HTRF-2 IC50
T3 construct: JAK3 (a.a. 781-1124); His tag (N); made in house; host or cells: insect cells (baculovirus)
T3 sequence (P52333 781-1124): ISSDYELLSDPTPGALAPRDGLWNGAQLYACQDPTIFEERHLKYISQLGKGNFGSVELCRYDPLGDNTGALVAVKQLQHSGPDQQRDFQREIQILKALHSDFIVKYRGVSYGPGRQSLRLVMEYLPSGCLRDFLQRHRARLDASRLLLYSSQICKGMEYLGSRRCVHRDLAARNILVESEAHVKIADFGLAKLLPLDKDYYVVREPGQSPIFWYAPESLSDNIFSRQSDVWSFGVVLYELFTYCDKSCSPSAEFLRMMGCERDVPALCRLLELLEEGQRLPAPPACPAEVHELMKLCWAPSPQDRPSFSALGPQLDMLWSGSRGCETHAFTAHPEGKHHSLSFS
Protocol: as §1

[5] = molecular target: TF1-BCRABL1 cells (Homo sapiens, UniProt P00519); experiment: ABL1 cell based assay: viability of ABL1-dependent cell line (CellTiter-Glo); conditions: 72 hours, cell viability; read-out: EXAMPLE F JAK2-TF1-BCRABL1 IC50
TF1-BCRABL1 cells, sequence (P00519 whole entry, change not shown): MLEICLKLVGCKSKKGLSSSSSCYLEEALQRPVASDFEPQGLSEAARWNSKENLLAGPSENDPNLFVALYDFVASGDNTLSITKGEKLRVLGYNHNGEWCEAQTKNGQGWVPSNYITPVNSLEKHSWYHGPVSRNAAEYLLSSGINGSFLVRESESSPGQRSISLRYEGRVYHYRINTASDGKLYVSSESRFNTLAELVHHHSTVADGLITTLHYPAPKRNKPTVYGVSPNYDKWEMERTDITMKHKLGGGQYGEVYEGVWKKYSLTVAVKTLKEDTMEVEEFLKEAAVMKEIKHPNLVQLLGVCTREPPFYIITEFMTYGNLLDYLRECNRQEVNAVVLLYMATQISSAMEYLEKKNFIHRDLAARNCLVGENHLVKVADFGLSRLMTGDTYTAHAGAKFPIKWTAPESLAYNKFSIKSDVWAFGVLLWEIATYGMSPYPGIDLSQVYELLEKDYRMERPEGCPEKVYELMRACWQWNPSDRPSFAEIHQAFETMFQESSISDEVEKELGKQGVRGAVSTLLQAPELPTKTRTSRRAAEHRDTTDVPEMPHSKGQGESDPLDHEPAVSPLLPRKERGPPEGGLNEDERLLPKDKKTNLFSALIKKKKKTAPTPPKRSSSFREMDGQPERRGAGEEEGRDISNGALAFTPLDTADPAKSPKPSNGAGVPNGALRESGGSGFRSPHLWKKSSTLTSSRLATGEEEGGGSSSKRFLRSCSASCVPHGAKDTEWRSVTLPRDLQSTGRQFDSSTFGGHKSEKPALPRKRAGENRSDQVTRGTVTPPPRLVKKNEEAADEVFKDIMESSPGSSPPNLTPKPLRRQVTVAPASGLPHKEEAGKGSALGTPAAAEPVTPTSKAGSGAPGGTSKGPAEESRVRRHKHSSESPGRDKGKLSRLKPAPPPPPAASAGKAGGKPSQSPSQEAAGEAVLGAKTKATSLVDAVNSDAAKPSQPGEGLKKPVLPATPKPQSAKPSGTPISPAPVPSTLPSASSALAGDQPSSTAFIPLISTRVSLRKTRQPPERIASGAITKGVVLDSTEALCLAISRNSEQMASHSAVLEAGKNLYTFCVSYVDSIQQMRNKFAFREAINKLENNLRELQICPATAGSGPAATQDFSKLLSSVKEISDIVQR
Protocol: One or more compounds herein were tested for inhibitory activity of ABL1 targets according to at least one of the following cellular assays.
Cancer cell lines dependent on ABL1 kinase activity for proliferation and/or survival were plated at 3000 cells per well (96 well plate format) in RPMI 1640, and 10% FBS. Compounds were added to the cells in DMSO/media (final concentration 0.2% DMSO) and incubated for 72 hours at 37° C., 5% CO2. The effect of compound on cell viability was assessed using the CellTiter-Glo Luminescent Cell Viability Assay (Promega) followed by TopCount (Perkin Elmer, Boston, Mass.) quantitation. ABL1-dependent cell lines can include those naturally dependent on ABL1 activity or those engineered to be dependent on ABL1 activity (e.g. BaF/3 cells). The latter can be generated using wild-type ABL1 or mutant ABL1 (such as T315I ABL1) so that the activity of compounds can be assessed against different variants of the ABL1 kinase. Potential off-target effects of compounds were measured in parallel using a non-ABL1 driven cell line with the same assay readout. […] All experiments were performed in duplicate or greater.

Structure (SMILES)	IC50 [1] [nM]	IC50 [2] [nM]	IC50 [3] [nM]	IC50 [4] [nM]	GI50 [5] [nM]
Cc1ccc(C(=O)Nc2cccc(OC(F)(F)F)c2)cc1-c1ccc2c(c1)[nH]c1ncncc12 [Example 54, 4-methyl-3-(9H-pyrimido-[4,5-b]indol-7-yl)-N-[3-(trifluoromethoxy)phenyl]-benzamide]	≤ 500	500 to 1000	≤ 500	≤ 500	≤ 500
Cc1ccc(NC(=O)Nc2cccc(C(F)(F)F)c2)cc1-c1ccc2c(c1)[nH]c1ncncc12 [Example 47, N-[4-Methyl-3-(9H-pyrimido[4,5-b]indol-7-yl)phenyl]-N′-[3-(trifluoromethyl)-phenyl]urea]	500 to 1000	> 1000	≤ 500	≤ 500	≤ 500
COc1ccc(C(=O)Nc2cccc(C(F)(F)F)c2)cc1-c1ccc2c(c1)[nH]c1ncncc12 [Example 60, 4-methoxy-3-(9H-pyrimido-[4,5-b]indol-7-yl)-N-[3-(trifluoromethyl)phenyl]-benzamide]	≤ 500	> 1000	≤ 500	500 to 1000	≤ 500
Cc1ccc(C(=O)N[C@H](C)c2ccccc2)cc1-c1ccc2c(c1)[nH]c1ncncc12 [Example 63, 4-methyl-N-[(1R)-1-phenylethyl]-3-(9H-pyrimido[4,5-b]indol-7-yl)benzamide]	> 1000	> 1000	> 1000	500 to 1000	500 to 1000
Cc1ccc(NC(=O)Nc2cccc(C(F)(F)F)c2)cc1-c1ccc2[nH]c3ncncc3c2c1 [Example 48, N-[4-Methyl-3-(9H-pyrimido[4,5-b]indol-6-yl)phenyl]-N′-[3-(trifluoromethyl)-phenyl]urea]	> 1000	500 to 1000	≤ 500	500 to 1000	≤ 500
O=C(Nc1cccc(-c2ccc3c(c2)[nH]c2ncncc23)c1)c1cccc(C(F)(F)F)c1 [Example 14, N-[3-(9H-pyrimido[4,5-b]-indol-7-yl)phenyl]-3-(trifluoro-methyl)benzamide]	≤ 500	> 1000	≤ 500	> 1000	500 to 1000
Cc1ccc(C(=O)NCc2cc(F)ccc2F)cc1-c1ccc2c(c1)[nH]c1ncncc12 [Example 55, N-(2,5-difluorobenzyl)-4-methyl-3-(9H-pyrimido-[4,5-b]indol-7-yl)benzamide]	> 1000	500 to 1000	> 1000	≤ 500	500 to 1000
Cc1cn(-c2cc(NC(=O)c3ccc(C)c(-c4ccc5c(c4)[nH]c4ncncc45)c3)cc(C(F)(F)F)c2)cn1 [Example 62, 4-methyl-N-[3-(4-methyl-1H-imidazol-1-yl)-5-(trifluoro-methyl)phenyl]-3-(9H-pyrimido[4,5-b]indol-7-yl)-benzamide]	≤ 500	500 to 1000	≤ 500	≤ 500	≤ 500
Cc1ccc(NC(=O)c2cccc(F)c2)cc1-c1ccc2c(c1)[nH]c1ncncc12 [Example 6, 3-fluoro-N-[4-methyl-3-(9H-pyrimido[4,5-b]indol-7-yl)-phenyl]benzamide]	≤ 500	500 to 1000	≤ 500	≤ 500	≤ 500
Cc1ccc(NC(=O)c2cccc(C(F)(F)F)c2F)cc1-c1ccc2c(c1)[nH]c1ncncc12 [Example 3, 2-fluoro-N-[4-methyl-3-(9H-pyrimido[4,5-b]indol-7-yl)-phenyl]-3-(trifluoromethyl)-benzamide]	≤ 500	≤ 500	≤ 500	≤ 500	≤ 500
Cc1ccc(NC(=O)c2cccc(Cl)c2)cc1-c1ccc2c(c1)[nH]c1ncncc12 [Example 15, 3-chloro-N-[4-methyl-3-(9H-pyrimido[4,5-b]indol-7-yl)-phenyl]benzamide]	≤ 500	≤ 500	≤ 500	≤ 500	≤ 500
COc1cccc(C(=O)Nc2ccc(C)c(-c3ccc4c(c3)[nH]c3ncncc34)c2)c1 [Example 11, 3-methoxy-N-[4-methyl-3-(9H-pyrimido[4,5-b]indol-7-yl)-phenyl]benzamide]	500 to 1000	> 1000	≤ 500	≤ 500	≤ 500
Cc1ccc(NC(=O)c2cc(NCCN(C)C)cc(C(F)(F)F)c2)cc1-c1ccc2c(c1)[nH]c1ncncc12 [Example 38, 3-{[2-(dimethylamino)ethyl]-amino}-N-[4-methyl-3-(9H-pyrimido [4,5-b]indol-7-yl)-phenyl]-5-(trifluoromethyl) benzamide]	≤ 500	500 to 1000	≤ 500	≤ 500	≤ 500
Cc1ccc(NC(=O)c2cc(C(F)(F)F)ccc2C(F)(F)F)cc1-c1ccc2[nH]c3ncncc3c2c1 [Example 45, N-[4-methyl-3-(9H-pyrimido-[4,5-b]indol-6-yl)phenyl]-2,5-bis(trifluoromethyl)benzamide]	> 1000	> 1000	≤ 500	> 1000	500 to 1000
Cc1ccc(NC(=O)c2cccc(C(F)(F)F)c2)cc1-c1ccc2c(c1)[nH]c1ncncc12 [Example 1, N-[4-Methyl-3-(9H-pyrimido[4,5-b]indol-7-yl)phenyl]-3-(trifluoromethyl)benzamide trifluoroacetate]	≤ 500	≤ 500	≤ 500	≤ 500	≤ 500
O=C(Nc1cccc(C(F)(F)F)c1)c1cccc(-c2ccc3c(c2)[nH]c2ncncc23)c1 [Example 59, 3-(9H-pyrimido[4,5-b]indol-7-yl)-N-[3-(trifluoromethyl)-phenyl]benzamide]	≤ 500	> 1000	≤ 500	> 1000	500 to 1000
Cc1cnc(NC(=O)c2ccc(C)c(-c3ccc4c(c3)[nH]c3ncncc34)c2)s1 [Example 57, 4-methyl-N-(5-methyl-1,3-thiazol-2-yl)-3-(9H-pyrimido-[4,5-b]indol-7-yl)benzamide]	> 1000	> 1000	≤ 500	> 1000	≤ 500
Cc1ccc(NC(=O)c2cc(C(F)(F)F)cc(Cl)c2F)cc1-c1ccc2[nH]c3ncncc3c2c1 [Example 46, 3-chloro-2-fluoro-N-[4-methyl-3-(9H-pyrimido[4,5-b]indol-6-yl)phenyl]-5-(trifluoromethyl)-benzamide]	≤ 500	> 1000	≤ 500	> 1000	≤ 500
Cc1ccc(C(=O)NCc2cccc(C(F)(F)F)c2)cc1-c1ccc2c(c1)[nH]c1ncncc12 [Example 56, 4-methyl-3-(9H-pyrimido-[4,5-b]indol-7-yl)-N-[3-(trifluoromethyl)benzyl]-benzamide]	> 1000	> 1000	> 1000	≤ 500	≤ 500
